Columns and labels:
Solvent solubility test = type: physicochemical; parameters: key: A: Soluble; B: Soluble, but undissolved residue was visually confirmed; C: Insoluble; details: 3% by mass, stood overnight at room temperature (15 to 25° C.), visually observed; for Solubility in Dioxane: 1,4-dioxane; for Solubility in IPA: isopropanol; for Solubility in MEK: methyl ethyl ketone; for Solubility in MIBK: methyl isobutyl ketone; for Solubility in THF: tetrahydrofuran
Description: (Solvent Solubility Test)
For each sample and solvent, a sample and a solvent shown in Table 1 below were mixed in a concentration of 3% by mass, and a mixture was shaken by hand for about 10 minutes, and then allowed to stand overnight at a room temperature (temperature of 15 to 25° C.). After that, the solubility of the sample was visually observed and evaluated according to the following criteria. • A: Soluble • B: Soluble, but undissolved residue was visually confirmed • C: Insoluble (Flexural Test)
The results of the solubility test of the fluorene derivatives obtained in Examples 1 to 3 and Comparative Example 1 are shown in Table 1. In Table 1, IPA represents isopropanol, MEK represents methyl ethyl ketone, MIBK represents methyl isobutyl ketone, dioxane represents 1,4-dioxane, and THF represents tetrahydrofuran. As NIPAM-FL, the one prepared in Example 3A was used.

[1] = 5% mass reduction temperature (TG-DTA); type: physicochemical; details: nitrogen atmosphere, 50 to 400° C., heating rate 10° C./min
Description: (5% Mass Reduction Temperature)
The temperature, at which the mass of the sample is reduced by 5% by mass, was measured using a Thermogravimeter-Differential Thermal Analyzer (TG-DTA) (manufactured by PerkinElmer, Inc., “TGA-4000”) in a nitrogen atmosphere, under the condition of a measurement temperature range of 50 to 400° C. with a heating rate of 10° C./min.

Compound	Solubility in Dioxane (Solvent solubility test)	Solubility in Acetone (Solvent solubility test)	Solubility in Chloroform (Solvent solubility test)	Solubility in Ethanol (Solvent solubility test)	Solubility in Ethyl acetate (Solvent solubility test)	Solubility in Hexane (Solvent solubility test)	Solubility in Methanol (Solvent solubility test)	Solubility in Toluene (Solvent solubility test)	Solubility in Water (Solvent solubility test)	Solubility in IPA (Solvent solubility test)	Solubility in MEK (Solvent solubility test)	Solubility in MIBK (Solvent solubility test)	Solubility in THF (Solvent solubility test)	5% mass reduction temperature [1]
NC(=O)CCC1(CCC(N)=O)c2ccccc2-c2ccccc21 [AAD-FL, 9,9-di-(β-carbamoyl-ethyl)fluorene, reference compound]	C	C	C	C	C	C	C	C	C	C	C	B	C	320 °C
CN(C)C(=O)CCC1(CCC(=O)N(C)C)c2ccccc2-c2ccccc21 [DMAA-FL, 9,9-bis[2-(N,N-dimethylcarbamoyl)ethyl]fluorene]	C	C	A	A	C	C	A	C	C	C	C	A	A	318 °C
CC(C)NC(=O)CCC1(CCC(=O)NC(C)C)c2ccccc2-c2ccccc21 [NIPAM-FL, 9,9-bis[2-(N-isopropylcarbamoyl)ethyl]fluorene]	C	C	C	C	C	C	A	C	C	C	C	B	C	257 °C
CCN(CC)C(=O)CCC1(CCC(=O)N(CC)CC)c2ccccc2-c2ccccc21 [DEAA-FL, 9,9-bis[2-(N,N-diethylcarbamoyl)ethyl]fluorene]	A	A	A	A	A	C	A	A	C	A	A	A	A	294 °C

Source: US12415777B2, “Fluorene derivative, and production method and use for same” (Osaka Gas Chemicals Co., Ltd., priority 2020, dated 2025)
